# Experimental data taken from paper PMC9407317 (Proceedings of the National Academy of Sciences of the …, 2022).
# Key:
# [1] = target: T1, SK4 K+ channel (Homo sapiens, UniProt O15554); assay: whole-cell patch clamp; format: cell-based; conditions: read-out: % inhibition at 0.5 μM
# [2] = target: T1, SK4 K+ channel; format: cell-based
# T1 sequence (O15554 whole entry): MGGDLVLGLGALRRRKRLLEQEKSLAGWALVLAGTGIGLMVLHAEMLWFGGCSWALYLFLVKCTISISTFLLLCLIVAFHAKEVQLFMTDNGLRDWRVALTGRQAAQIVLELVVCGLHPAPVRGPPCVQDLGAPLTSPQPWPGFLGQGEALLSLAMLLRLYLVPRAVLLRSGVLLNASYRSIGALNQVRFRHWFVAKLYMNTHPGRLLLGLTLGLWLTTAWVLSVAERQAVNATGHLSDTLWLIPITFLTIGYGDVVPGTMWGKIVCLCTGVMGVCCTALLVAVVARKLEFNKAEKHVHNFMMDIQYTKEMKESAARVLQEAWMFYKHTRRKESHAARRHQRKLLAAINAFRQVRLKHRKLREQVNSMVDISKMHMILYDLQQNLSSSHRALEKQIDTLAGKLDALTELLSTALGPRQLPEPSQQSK
Compound,inhibition at 0.5 µM [1],EC50 [2]
Clc1ccccc1C(c1ccccc1)(c1ccccc1)n1cccn1 [Tram-34],86%,
CCCCCCCC(=O)OC[C@H](COP(=O)(O)O[C@@H]1[C@H](O)[C@H](O)[C@@H](OP(=O)(O)O)[C@H](OP(=O)(O)O)[C@H]1O)OC(=O)CCCCCCC [diC8-PIP2],,154 nM
